Km and kcat data for 1 compound are collected here from patent publication US11639348B2, “Compositions and methods for neuraminidase detection and quantification” (priority 2018, dated 2023).

The test system of the assay is A/Brisbane/59/2007 H1N1 Oseltamivir-Resistant NA. It counts as biochemical, influenza A/Brisbane/59/2007 H1N1 Oseltamivir-Resistant. The settings on record: pH 7.6.

SMILES strings stand for the structures.

As usually defined, the Km is the substrate concentration at which the rate is half of its maximum. By kcat is commonly meant the maximal rate divided by the concentration of active sites. Consider `CC(=O)NC1C(NC(=N)N)C(F)C(Oc2c(F)cc3c(C)cc(=O)oc3c2F)(C(=O)O)OC1[C@H](O)[C@H](O)CO` (stereo partly drawn) [compound 3, 5-Acetamido-4-guanidine-3-fluoro-3,4,5-trideoxy-2α-(4-methyl-6,8-difluoromethylumbelliferyl)-D-glycero-D-galactononulopyranosylnoic acid], for which the Km is 41.6 µM and the kcat was 35.7 s⁻¹.
